We go through seven compounds from PMC6271559, “Synthesis and Evaluation of 2,4-Disubstituted Quinazoline Derivatives with Potent Anti-Angiogenesis Activities” (Molecules, 2014).

Where two headings read alike, the source gives them in different places.

For data set [1], the system named is chick embryo chorioallantoic membrane (CAM). Briefly: CAM angiogenesis assay. The conditions noted are these: 30 μg/10 μL on filter disc, 48 h. Type of data set: in vivo. As for the experimental part: CAMs treated with 0.9% NaCl solution (negative control) were surrounded by all antoic vessels as newly-formed capillaries converging radially toward the sponge in a “spoked wheel” pattern (number of vessels 24 ± 3).
The in vivo CAM angiogenesis model as initially described by Folkman and then modified by Maragoudakis was used. Fertilized chicken eggs were used after incubating them for 8 days. A 1 cm × 1 cm window was made in the shell to create a pocket to expose the CAM. A filter disc with 0.9% NaCl solution or 30 μg/10 μL of compounds was then placed upon the CAM from 10 eggs per treatment and 48 h later, the CAMs were fixed with 4% paraformaldehyde and the vessel number from three random fields around the filter disc were pictured using a microscope.

Data set [2] deals with CNE-2 (human nasopharyngeal cancer) cells. Briefly: MTT cytotoxicity assay, CNE-2. Conditions: 48 h, mean of three independent assays. Type of data set: cell-based. From the text:
(§1) In the early 80s, scientists proposed anti-angiogenesis as a potential target in cancer therapy. Much research in the past 30 years has targeted tumor angiogenesis as a means of inhibiting the process of tumor-caused blood vessel formation. Endothelial cells, which come from the inner lining of blood vessels, makes up a fundamental part of new blood vessels as well as pre-existing ones. A complete angiogenesis process includes the proliferation, migration, and differentiation of endothelial cells, so a great deal of angiogenesis inhibitors discovered to date target endothelial cells. We thus employed a cell proliferation assay to evaluate the cytotoxicity of quinazoline derivatives against both normal (HUVEC) and tumor cell lines (CNE-2, PC-3, and SMMC-7721 cell lines) so we can screen some molecules that have cytotoxicity against tumor cells but low cytotoxicity against HUVECs. Meanwhile, an appropriate concentration range of these compounds could be determined to further study their inhibitive effects against the proliferation, migration, and differentiation of HUVECs. The cytotoxic activities of quinazoline derivatives against human tumor cell lines CNE-2 (human nasopharyngeal cancer), PC-3 (human prostatic carcinoma), SMMC-7721 (human liver cancer) and Human Umbilical Vein Endothelial Cells (HUVECs) were determined by using the MTT cytotoxicity assay.
(§2) HUVEC, CNE-2, PC-3, and 7721 cell lines were seeded on 96-well plates at a concentration of 5,000 cells per well and exposed to various concentrations of quinazoline derivatives. After 48 h of treatment at 37 °C in a humidified atmosphere of 5% CO2, 5 mg/mL MTT solution (10 μL) was added to each well and further incubated for 4 h. Each well was then added dimethyl sulfoxide (DMSO, 100 μL), and the optical density (OD) was recorded at 490 nm. All measurements were done in triplicate, and the IC50 values were derived from the mean OD values of the triplicate tests versus drug concentration curves.
(Tetrazolium dyes change colour on reduction, which living cells bring about.)

Data set [3] is described as follows: MTT cytotoxicity assay, HUVEC. Type of data set: cell-based. The conditions noted are these: human, HUVEC (human umbilical vein endothelial cells), mean of three independent assays.
From the text: as §1, §2

Data set [4] relates to HUVEC adhesion to collagen. Nature of the data set: HUVEC adhesion assay on type I collagen. Conditions: adhesion of HUVEC on collagen, 37 °C; for inhibition at 15 µM / inhibition at 30 µM: Homo sapiens, HUVEC. Type of data set: cell-based, human. From the text:
A perfect angiogenesis inhibitor must be show lower toxicity toward HUVECs, while showing high inhibitive capability towards the proliferation, migration, and differentiation of HUVECs. To assess the inhibitory effects of 2,4-disubstituted quinazoline derivatives, three assays were used: HUVEC adhesion assay, HUVEC migration assay and CAM assay. Firstly, to test the inhibitory effects of quinazoline derivatives on the attachment of endothelial cells to type I collagen, cell adhesion assays were carried out.
Cell adhesion assay was carried out by a reported method with slight modification. Wells of a 96-well plate were coated at room temperature overnight with rat trail tendon collagen type I (2 μg) in PBS in a final volume of 100 μL. The wells were washed three times with PBS ([…]) and then blocked with 0.2% bovine serum albumin (BSA) in PBS ([…]) for 2 h at 37 °C in a cell culture incubator. The wells were then washed three times with PBS ([…]). HUEVCs were detached from the dish, resuspended in DMEM, and added (50 μL, 10^4 cells/mL) to each well followed by the related compounds (50 μL) at various concentrations. The plates were incubated for 1 h or 3 h at 37 °C and then washed three times with PBS (100 μL). The attached cells were fixed and stained with 0.2 % crystal violet in 20% methanol for 10 min, then washed three times with PBS ([…]). The cells were solubilized by 2% SDS and the OD was measured at 570 nm. Attachment was determined by both 1 and 3 h as described above. Each compound was tested in triplicate and each experiment was repeated three times.

Data set [5] concerns SMMC-7721 (human liver cancer) cells. Briefly: MTT cytotoxicity assay, SMMC-7721. Type of data set: cell-based. The conditions noted are these: 48 h, mean of three independent assays.
From the text: as §1, §2

Data set [6] concerns PC-3 (human prostatic carcinoma) cells. Nature of the data set: MTT cytotoxicity assay, PC-3. Type of data set: cell-based. The conditions noted are these: Prostatic carcinoma cell, 48 h, mean of three independent assays.
From the text: as §1, §2

In the next data set the test system is HUVEC migration. Nature of the data set: HUVEC migration (wounding) assay. Type of data set: cell-based, human. The conditions noted are these: 15 μM and 30 μM, 24 h. As for the experimental part:
Compounds were tested at concentrations of both 15 μM and 30 μM, and all seven compounds tested in this assay could inhibit HUVEC migration.
The HUVEC cell line was seeded on a pre-treated 48-well culture plate at a concentration of 2 × 10^4 cells per well in a volume of 200 μL, and a portion of the cell monolayer was scraped off with a sterile disposable rubber policeman. After the DMEM medium was removed, the cells in each well were then washed three times with PBS (phosphate-buffer saline), and fresh medium was added to each well. The wells were then tested after incubation for 24 h with or without quinazoline derivatives at various concentrations. Two random pictures were taken for each wound using a microscope. The area of the migrations was measured using Photoshop CS3. All measurements were done in triplicate, and the experiments were done at least three times.

The mark [7] stands for this setting: 1 h, 1 h, 15 μM, read-out: 1 h Inhibition Rate % Dose 15 μM.
[8] abbreviates: 1 h, 1 h, 30 μM, read-out: 1 h Inhibition Rate % Dose 30 μM.
[9] abbreviates: 3 h, 3 h, 15 μM, read-out: 3 h Inhibition Rate % Dose 15 μM.
[10] abbreviates: 3 h, 3 h, 30 μM, read-out: 3 h Inhibition Rate % Dose 30 μM.

In turn, `CN(C)CCCNc1nc(-c2ccccc2NC(=O)CCCN2CCN(C)CC2)nc2ccccc12` [Compound 12d, N-(2-(4-(3-(Dimethylamino)propylamino)quinazolin-2-yl)phenyl)-4-(4-methylpiperazin-1-yl)butanami-de] displayed a melting point of 155 to 157 °C. In addition, the “inhibition of angiogenesis in CAM assay” value in data set [1] is on record as “excellent inhibition of angiogenesis”. Further, inhibition in data set [2] was half-maximal at 11.4 ± 0.1 µM (IC50). Moreover, in data set [3], the IC50 at 48 h was determined as 40.2 ± 0.2 µM. Moreover, the inhibition at 15 µM in data set [4] (setting [7]) came to 46.8 ± 0.2%. Also, the inhibition at 30 µM in data set [4] (setting [8]) came out at 63.7 ± 0.2%. Moreover, the inhibition at 15 µM in data set [4] (setting [9]) was determined as 47.5 ± 0.3%. For the same compound, the inhibition at 30 µM in data set [4] (setting [10]) worked out at 63.4 ± 0.3%. Moreover, the IC50 in data set [5] came out at 10.3 ± 0.5 µM. In data set [6], this compound gave an IC50 of 10.9 ± 0.2 µM.
The compound `CN(C)CCCNc1nc(-c2ccccc2NC(=O)CCN2CCN(C)CC2)nc2ccccc12` [Compound 11d, N-(2-(4-(3-(Dimethylamino)propylamino)quinazolin-2-yl)phenyl)-3-(4-methylpiperazin-1-yl)propane-mide] displayed a melting point of 167 to 168 °C. Moreover, the “inhibition of angiogenesis in CAM assay” value in data set [1] was “excellent inhibition of angiogenesis”. Moreover, in the data set on HUVEC migration, the “inhibition of HUVEC migration” value is recorded as “best inhibitory activity”. Besides, the IC50 in data set [2] was 9.3 ± 0.2 µM. For the same compound, half-maximal inhibition in data set [3] (IC50 at 48 h) was put at 47.2 ± 0.2 µM. The inhibition at 15 µM in data set [4] (setting [7]) stood at 47.4 ± 0.1%. Also, the inhibition at 30 µM in data set [4] (setting [8]) is 65.8 ± 0.2%. Besides, the inhibition at 15 µM in data set [4] (setting [9]) came out at 53.3 ± 0.3%. For the same compound, the inhibition at 30 µM in data set [4] (setting [10]) was 71.2 ± 0.1%. Moreover, in data set [5], inhibition was half-maximal at 10.9 ± 0.2 µM (IC50). Also, the IC50 in data set [6] was determined as 9.8 ± 0.3 µM.
In the case of `CN(C)CCCNc1nc(-c2ccccc2NC(=O)CN2CCOCC2)nc2ccccc12` [Compound 10e, N-(2-(4-(3-(Dimethylamino)propylamino)quinazolin-2-yl)phenyl)-2-morpholinoacetamide], the melting point lay within 179 to 181 °C. This compound yielded an IC50 in data set [2] of 19.7 ± 0.2 µM. Also, inhibition in data set [3] was half-maximal at 79.8 ± 0.1 µM (IC50 at 48 h). In addition, in data set [4] (setting [8]), the inhibition at 30 µM was determined as 14.3 ± 0.1%. Further, the inhibition at 15 µM in data set [4] (setting [9]) stood at 7.9 ± 0.3%. Further, the inhibition at 30 µM in data set [4] (setting [10]) turned out to be 17.6 ± 0.3%. Besides, the midpoint of inhibition in data set [5], the IC50, lay at 22.6 ± 0.2 µM. Besides, it took 20.5 ± 0.3 µM to reach half-maximal inhibition in data set [6] (IC50).
On to `CN(C)CCCNc1nc(-c2ccccc2NC(=O)CN2CCN(C)CC2)nc2ccccc12` [Compound 10d, N-(2-(4-(3-(Dimethylamino)propylamino)quinazolin-2-yl)phenyl)-2-(4-methylpiperazin-1-yl)acetamide], for which the melting point was in the range of 174 to 175 °C. Besides, the midpoint of inhibition in data set [2], the IC50, lay at 10.5 ± 0.3 µM. Inhibition in data set [3] was half-maximal at 38.7 ± 0.1 µM (IC50 at 48 h). Also, the inhibition at 15 µM in data set [4] (setting [7]) stood at 34.8 ± 0.2%. The inhibition at 30 µM in data set [4] (setting [8]) turned out to be 44.6 ± 0.4%. The inhibition at 30 µM in data set [4] (setting [10]) stood at 63.4%. The “3 h Inhibition Rate % Dose 15 μM” value in data set [4] (3 h, 15 μM) is on record as 32.5 ± 0.4%. Also, the “3 h Inhibition Rate % Dose 30 μM” value in data set [4] (3 h, 30 μM) worked out at 47.2 ± 0.1%. Besides, the IC50 in data set [5] stood at 10.4 ± 0.1 µM. Also, in data set [6], inhibition was half-maximal at 11.3 ± 0.5 µM (IC50).
With `CN(C)CCCNc1nc(-c2ccccc2NC(=O)CCN2CCCC2)nc2ccccc12` [Compound 11b, N-(2-(4-(3-(Dimethylamino)propylamino)quinazolin-2-yl)phenyl)-3-(pyrrolidin-1-yl)propanamide], the melting point was 163 to 165 °C. Moreover, half-maximal inhibition in data set [2] (IC50) was put at 14.3 ± 0.1 µM. This compound had an IC50 at 48 h in data set [3] of 46.3 ± 0.3 µM. Besides, the inhibition at 15 µM in data set [4] (setting [7]) amounted to 35.4 ± 0.3%. The inhibition at 30 µM in data set [4] (setting [8]) is 54.3 ± 0.3%. For the same compound, the inhibition at 15 µM in data set [4] (setting [9]) was 35.2 ± 0.3%. In addition, the inhibition at 30 µM in data set [4] (setting [10]) stood at 51.7 ± 0.2%. Further, half-maximal inhibition in data set [5] (IC50) was put at 15.1 ± 0.2 µM. Also, inhibition in data set [6] was half-maximal at 17.4 ± 0.1 µM (IC50).
The compound `CN(C)CCCNc1nc(-c2ccccc2NC(=O)CN2CCCCC2)nc2ccccc12` [Compound 10a, N-(2-(4-(3-(Dimethylamino)propylamino)quinazolin-2-yl)phenyl)-2-(piperidin-1-yl)acetamide] displayed a melting point of 180 to 182 °C. For the same compound, 13.6 ± 0.2 µM corresponded to half-maximal inhibition in data set [2] (IC50). The IC50 at 48 h in data set [3] worked out at 45.7 ± 0.2 µM. The inhibition at 15 µM in data set [4] (setting [7]) amounted to 26.7 ± 0.1%. Further, the inhibition at 30 µM in data set [4] (setting [8]) turned out to be 31.6 ± 0.3%. In data set [4] (setting [9]), the inhibition at 15 µM stood at 29.2 ± 0.2%. Moreover, the inhibition at 30 µM in data set [4] (setting [10]) is 37.6 ± 0.1%. For the same compound, the IC50 in data set [5] is 18.1 ± 0.2 µM. Moreover, the midpoint of inhibition in data set [6], the IC50, lay at 16.8 ± 0.1 µM.
The compound `CN(C)CCCNc1nc(-c2ccccc2NC(=O)CCN2CCCCC2)nc2ccccc12` [Compound 11a, N-(2-(4-(3-(Dimethylamino)propylamino)quinazolin-2-yl)phenyl)-3-(piperidin-1-yl)propanamide] gave a melting point of 178 to 179 °C. In data set [2], this compound yielded an IC50 of 14.2 ± 0.1 µM. Moreover, the IC50 at 48 h in data set [3] turned out to be 57.4 ± 0.5 µM. In addition, in data set [4] (setting [7]), the inhibition at 15 µM came out at 37.4 ± 0.3%. The inhibition at 30 µM in data set [4] (setting [8]) was 49.6 ± 0.5%. The inhibition at 15 µM in data set [4] (setting [9]) came out at 38.2 ± 0.1%. Besides, in data set [4] (setting [10]), the inhibition at 30 µM was determined as 59.3 ± 0.1%. Also, half-maximal inhibition in data set [5] (IC50) required 19.9 ± 0.4 µM. Half-maximal inhibition in data set [6] (IC50) was put at 18.1 ± 0.2 µM.

Broadly, the IC50 is the concentration that inhibits the measured activity by half. Read a high IC50 as a need for much substance. As usually defined, the melting point is the temperature of the solid-liquid transition. Usually inhibition stands for how much of the control response was suppressed.
